Consider 6 molecules from PubChem BioAssay (NCI).

Some test systems named below: HT29 colon; K-562 leukemia; CCRF-CEM leukemia; HCC-2998 colon; SNB-75 CNS; DLD-1 colon; SW-620 colon; HOP-62 NSCLC; IGROV1 ovarian; LXFL 529 NSCLC.
Common to all, as to assay: NCI-60 cell line screen, 48 h

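Tested at 5 concentrations; 48 h exposure; 96-well plates; endpoints linearly interpolated, else capped at highest concentration. Definition used: TGI = concentration required for complete inhibition of growth.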 Where only a bound is given, the exact number is not on record here.

As for `C#CCNC(=O)N(CC#C)N=O`, the TGI with HT29 colon, with K-562 leukemia, in the test on CCRF-CEM leukemia, in the test with HCC-2998 colon, in the test on SNB-75 CNS and with DLD-1 colon was greater than 100 µM in each case. Also, the TGI with SW-620 colon, with HOP-62 NSCLC, in the test with IGROV1 ovarian and in the test on LXFL 529 NSCLC was greater than 100 µM in each case.
Consider `CCN(CC)CC(C)(C)C(=O)/C=C/c1cccc(/C=C/C(=O)C(C)(C)CN(CC)CC)c1`, for which the TGI in the test with HT29 colon is 1.08 µM; with K-562 leukemia, greater than 100 µM; in the test with CCRF-CEM leukemia it was 11.6 µM; with HCC-2998 colon, 2.51 µM; with SNB-75 CNS it was 1.19 µM; in the test on DLD-1 colon, 0.833 µM. In addition, the TGI in the test on SW-620 colon was 0.419 µM; with HOP-62 NSCLC it was 5.14 µM; with IGROV1 ovarian it was 2.23 µM; in the test on LXFL 529 NSCLC it was 1.13 µM.
As for `COc1ccccc1NC(=O)C1=C(C)NC(C)=C(C(=O)Nc2ccccc2OC)C1C1=CC=COC1`, the TGI was 62.7 µM with HT29 colon; 26 µM in the test with K-562 leukemia; 48.4 µM in the test with CCRF-CEM leukemia; 50.2 µM with HCC-2998 colon; greater than 100 µM with SNB-75 CNS; 45.3 µM in the test with DLD-1 colon. For the same molecule, the TGI in the test with SW-620 colon was 22.1 µM; in the test on HOP-62 NSCLC, greater than 100 µM; with IGROV1 ovarian, greater than 100 µM; in the test with LXFL 529 NSCLC, 80 µM.
On to `Cc1ccc(S(=O)(=O)c2ccc(NC(=O)SCCC(=O)O)cc2)cc1`, for which the TGI in the test on HT29 colon, in the test on K-562 leukemia, in the test with CCRF-CEM leukemia, in the test on HCC-2998 colon, with SNB-75 CNS and in the test with DLD-1 colon was greater than 100 µM throughout. The TGI in the test on SW-620 colon, with HOP-62 NSCLC, in the test on IGROV1 ovarian and in the test with LXFL 529 NSCLC was greater than 100 µM each time.
Regarding `CC1=C(O)c2cn(C)cc2C(=O)C1=O`, the TGI with HT29 colon, in the test with K-562 leukemia, in the test on CCRF-CEM leukemia, in the test on HCC-2998 colon, in the test with SNB-75 CNS and in the test with DLD-1 colon was greater than 100 µM in each case. Also, the TGI in the test on SW-620 colon, with HOP-62 NSCLC, in the test on IGROV1 ovarian and in the test with LXFL 529 NSCLC was greater than 100 µM each time.
Regarding `O=C1CC(c2c(-c3ccccc3)[nH]c3ccccc23)C(=O)N1` (stereo not given), the TGI in the test on HT29 colon, with K-562 leukemia, with CCRF-CEM leukemia, with HCC-2998 colon, in the test with SNB-75 CNS and with DLD-1 colon was greater than 100 µM each time. Moreover, the TGI in the test with SW-620 colon, in the test with HOP-62 NSCLC, in the test on IGROV1 ovarian and with LXFL 529 NSCLC was greater than 100 µM throughout.
